Data on 27 compounds can be found in US5331006A, “Amino acid analogs as CCK antagonists” (Warner-Lambert Company, priority 1991, dated 1994).

One assay has as its target T1, CCK receptor sites (Mus musculus, UniProt P56481).
T1 construct: from tissue; host or cells: cerebral cortex membranes of male CFLP mice
T1 sequence (P56481 1-453): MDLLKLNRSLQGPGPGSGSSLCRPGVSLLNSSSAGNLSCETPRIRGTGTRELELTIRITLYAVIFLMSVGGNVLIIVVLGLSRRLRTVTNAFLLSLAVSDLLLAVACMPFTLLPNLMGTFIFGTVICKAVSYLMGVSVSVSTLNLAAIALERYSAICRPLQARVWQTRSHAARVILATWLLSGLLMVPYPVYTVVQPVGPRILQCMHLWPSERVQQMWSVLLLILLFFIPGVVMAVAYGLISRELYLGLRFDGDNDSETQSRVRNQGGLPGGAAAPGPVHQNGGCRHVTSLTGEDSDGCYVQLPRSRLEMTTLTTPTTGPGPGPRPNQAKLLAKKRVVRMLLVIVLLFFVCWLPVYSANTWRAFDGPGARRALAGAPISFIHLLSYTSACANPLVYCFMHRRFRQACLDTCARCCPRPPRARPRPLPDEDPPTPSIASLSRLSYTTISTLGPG
Put plainly: CCK receptor binding, displacement of tritiated pentagastrin from mouse cerebral cortex membranes. The settings on record: 2 nM tritiated pentagastrin, mouse cerebral cortical membranes; Ki from IC50 by Cheng-Prusoff. Set-up: key: IA = Inactive in respect to this binding assay. The procedure:
The biological activity of compounds of the present invention was evaluated employing an initial screening test which rapidly and accurately measured the binding of the tested compound to known CCK receptor sites. […] (See Hays, et al, Neuropeptides 1:53-62, 1980; and Satuer, et al, Science 208:1155-1156, 1980.)
In this screening test the cerebral cortices taken from male CFLP mice weighing between 30 to 40 g were dissected on ice, weighed, and homogenized in 10 volumes of 50 mM Tris-HCl buffer (pH 7.4 at 0° to 4° C.). The resulting suspension was centrifuged, the supernate was discarded, and the pellet was washed by resuspension in Tris-HCl buffer followed by recentrifugation. The final pellet was resuspended in 20 volumes of […] Hepes buffer (pH 7.2 at 23° C.) containing 130 mM NaCl, […] KCl, […] MgCl2, […] EDTA, 5 mg/mL bovine albumin, and bacitracin (0.25 mg/mL).
In saturation studies, cerebral cortical membranes were incubated at 23° C. for 120 minutes in a final volume of 500 μL of Hepes incubation buffer (pH 7.2) together with 0.2-20 nM tritiated-pentagastrin (Amersham International, England).
In the displacement experiments, membranes were incubated with a single concentration (2 nM) of ligand, together with increasing concentrations of competitive test compound. In each case, the nonspecific binding was defined as that persisting in the presence of the unlabeled octapeptide CCK26-33 (10^-6 M).
Following incubation, radioactivity bound to membranes was separated from that free in solution by rapid filtration through Whatman GF/B filters and washed three times with 4 mL of ice cold Tris-HCl buffer. Filters from samples incubated with tritiated pentagastrin were placed in polyethylene vials with 4 mL of scintillation cocktail, and the radioactivity was estimated by liquid scintillation spectrometry (efficiency 47% to 52%).
The specific binding to CCK receptor sites was defined as the total bound tritiated pentagastrin minus the amount of tritiated pentagastrin bound in the presence of 10^-6 octapeptide, CCK26-33.
Saturation curves for specific tritiated pentagastrin binding to mouse cortical membranes were analyzed by the methods of Scatchard (Ann. New York Acad. Sci. 51:660-672, 1949; Hill, J. Physiol. 40:IV-VIII, 1910) to provide estimates for the maximum number of binding sites (βmax)and the equilibrium dissociation constant (Ka).
In displacement experiments, inhibition curves were analyzed by either logit-log plots or the iterative curve fitting computer program ALLFIT (DeLean, Munson, and Redbard, 1978) to provide estimates of the IC50 and nH (apparent Hill coefficient) values). IC50 values were defined as the concentration of test compound required to produce 50% inhibition of specific binding).
The inhibition constant (Ki) of the test compound was then calculated according to the Cheng-Prusoff equation: [formula] where [L] is the concentration of radiolabel and Ka is the equilibrium dissociation constant.
The Ki values for several representative compounds of the present invention are present in Table II.
Turning to `CC(Cc1ccc[n+]([O-])c1)(NC(=O)OC1C2CC3CC(C2)CC1C3)C(=O)NCCc1ccccc1` (stereo not drawn), the inhibition constant (Ki) result is “IA”.
The same measure, in the same setting: as for `CC(Cc1ccncc1)(NC(=O)OC1C2CC3CC(C2)CC1C3)C(=O)NC(CO)Cc1ccccc1` (stereo not drawn) [drawing 61 (Diast II)], the entry is “IA”; as for `Cc1[nH]cc(CC(C)(NC(=O)OC2C3CC4CC(C3)CC2C4)C(=O)NCCc2ccccc2)c1C` (stereo not drawn) [drawing 56 (H H H H H)], “IA”; as for `CC(Cc1cccc[n+]1[O-])(NC(=O)OC1C2CC3CC(C2)CC1C3)C(=O)NC(CO)Cc1ccccc1` (single isomer, unassigned) [drawing 20], “IA”.
`CC(Cc1cccc[n+]1[O-])(NC(=O)OC1C2CC3CC(C2)CC1C3)C(=O)NC(CO)Cc1ccccc1` (single isomer, unassigned) [drawing 22 (Diast II)]: the Ki result is “IA”.

Staying with this assay, now noted: 2 nM tritiated pentagastrin, mouse cerebral cortical membranes; Ki from IC50 by Cheng-Prusoff; read-out: Ki.
In the case of `CC(Cc1c[nH]c2ncccc12)(NC(=O)OC1C2CC3CC(C2)CC1C3)C(=O)NC(CO)C(O)c1ccccc1` (stereo not drawn) [drawing 66 (Diast I)], the Ki is 580 nM.
With `Cc1[nH]cc(CC(C)(NC(=O)OC2C3CC4CC(C3)CC2C4)C(=O)NC(CO)C(O)c2ccccc2)c1C` (stereo not drawn) [drawing 56 (H H CH2 OH H OH)], the Ki turned out to be 3000 nM.
The same measure, in the same setting: as for `CC(Cc1c[nH]c2ncccc12)(NC(=O)OC1C2CC3CC(C2)CC1C3)C(=O)NC(CO)C(O)c1ccccc1` (stereo not drawn) [drawing 66 (Diast II)], the figure is 43 nM; as for `CC(Cc1ncc2ccccn12)(NC(=O)OC1C2CC3CC(C2)CC1C3)C(=O)N[C@@H](CO)[C@@H](O)c1ccccc1` (stereo partly drawn) [drawing 57 (H H CH2 OH H OH)], 750 nM.
Still for that read-out and setting: as for `CN1c2ccccc2C(c2ccccc2)=NCC1CC(C)(NC(=O)OC1C2CC3CC(C2)CC1C3)C(=O)NCCc1ccccc1` (stereo not drawn) [drawing 64 (Diast I)], the figure is 760 nM.
On the same count and under the same terms, as for `CC(Cc1cccc2ccccc12)(NC(=O)OC1C2CC3CC(C2)CC1C3)C(=O)NC(CO)Cc1ccccc1` (stereo not drawn) [drawing 24], the figure is 720 nM; as for `CC(Cc1cnc2ccccc2c1)(NC(=O)OC1C2CC3CC(C2)CC1C3)C(=O)NCCc1ccccc1` (stereo not drawn), 304 nM; as for `CC(Cc1n[nH]c2ccccc12)(NC(=O)OC1C2CC3CC(C2)CC1C3)C(=O)NCC(NC(=O)CCC(=O)O)c1ccccc1` (stereo not drawn) [drawing 53 (H H H H NHCOCH2 CH2 COOH)], 96 nM.
Turning to `CC(Cc1ccc2ccccc2n1)(NC(=O)OC1C2CC3CC(C2)CC1C3)C(=O)NCCc1ccccc1` (stereo not drawn) [drawing 36 (H H H H H)], the Ki was determined as 400 nM.
On to `CC(Cc1ccncc1)(NC(=O)OC1C2CC3CC(C2)CC1C3)C(=O)NCCc1ccccc1` (stereo not drawn), for which the Ki amounted to 3000 nM.
The same measure, in the same setting: as for `CC(Cc1ncc2ccccn12)(NC(=O)OC1C2CC3CC(C2)CC1C3)C(=O)NCCc1ccccc1` (stereo not drawn) [drawing 57 (H H H H H)], the figure is 930 nM; as for `CC(Cc1coc2ccccc12)(NC(=O)OC1C2CC3CC(C2)CC1C3)C(=O)NC(CO)Cc1ccccc1` (stereo not drawn) [drawing 27 (H H CH2 OH H H)], 360 nM; as for `CC(Cc1ccc2ccccc2n1)(NC(=O)OC1C2CC3CC(C2)CC1C3)C(=O)NC(CO)Cc1ccccc1` (stereo not drawn) [drawing 43 (H H CH2 OH H H)], 402 nM.
As for `CC(Cc1c(Br)oc2ccccc12)(NC(=O)OC1C2CC3CC(C2)CC1C3)C(=O)NC(CO)Cc1ccccc1` (stereo not drawn) [drawing 28 (H H CH2 OH H H)], the inhibition constant Ki was 14 nM.
Same read-out and setting: as for `CC(Cc1csc2ccccc12)(NC(=O)OC1C2CC3CC(C2)CC1C3)C(=O)N[C@H](CO)Cc1ccccc1` (stereo partly drawn) [drawing 47 (H H CH2 OH H H)], the figure is 455 nM.
Still for that read-out and setting: as for `CC(Cc1n[nH]c2ccccc12)(NC(=O)OC1C2CC3CC(C2)CC1C3)C(=O)N[C@H](CO)Cc1ccccc1` (stereo partly drawn) [drawing 38 (H H CH2 OH H H)], the figure is 69 nM.
Still for that read-out and setting: as for `CC(Cc1ccncc1)(NC(=O)OC1C2CC3CC(C2)CC1C3)C(=O)NCC(NC(=O)CCC(=O)O)c1ccccc1` (stereo not drawn), the figure is 220 nM; as for `CC(Cc1ccccn1)(NC(=O)OC1C2CC3CC(C2)CC1C3)C(=O)NC(CO)Cc1ccccc1` (single isomer, unassigned) [drawing 14 (Diast I)], 1000 nM; as for `CC(Cc1ccncc1)(NC(=O)OC1C2CC3CC(C2)CC1C3)C(=O)NC(CO)Cc1ccccc1` (stereo not drawn) [drawing 61 (Diast I)], 370 nM.
For `CC(Cc1cccc2ccccc12)(NC(=O)OC1C2CC3CC(C2)CC1C3)C(=O)NC(CO)Cc1ccccc1` (stereo not drawn) [drawing 26], the Ki came to 14 nM.
As for `CC(Cc1ccnc2ccccc12)(NC(=O)OC1C2CC3CC(C2)CC1C3)C(=O)NCCc1ccccc1` (stereo not drawn) [drawing 40 (H H H H H)], the Ki stood at 262 nM.
The same measure, in the same setting: as for `CC(Cc1cc2c(cn1)[nH]c1ccccc12)(NC(=O)OC1C2CC3CC(C2)CC1C3)C(=O)NC(CO)Cc1ccccc1` (stereo not drawn), the figure is 1390 nM.

The Ki is a dissociation constant, usually derived from enzyme kinetics or from competition with a known ligand.
